Structures can show the parent of a compound that is named as a salt.
How the values were obtained:
[1] = in water at 20° C.; cited from earlier work
[2] = test system: dopamine D2; conditions: versus bromocriptine and pergolide; cited from earlier work
[3] = test system: rabbits; assay: Skin irritation study in rabbits, modified Draize irritation protocol; format: in vivo, rabbit; conditions: conclusion in words from Table 4
Description: The skin irritation study in rabbits using a modified Draize irritation protocol. The treatments included:
1) different activities of ropinirole in the selected vehicle that gave the highest flux of ropinirole slat; and
2) ropinirole in two selected vehicles. A proprietary vehicle that has been used in skin flux studies were tested as a control.
Mineral oil was used as the negative control in the study. The mean primary irritation score for each treatment was calculated.
3) ropinirole and base in three prototype systems (36048C, 36047G and 36040F; see Table 4 in Example 3, below).
Various ropinirole formulations were prepared and irritation studies conducted as described above.

[4] = test system: Parkinson's disease; conditions: statement in words; cited from earlier work
[5] = test system: Parkinson's disease; conditions: patients undergoing treatment with L-Dopa; cited from earlier work

CCCN(CCC)CCc1cccc2c1CC(=O)N2 [Ropinirole hydrochloride]
solubility [1]: 133 mg/mL

CCCN(CCC)CCc1cccc2c1CC(=O)N2 [ropinirole, 4-[2-(dipropylamino)ethyl]-1,3-dihydro-2H-indol-2-one]
specificity as dopamine D2 agonist [2]: more specific dopamine D2 agonist than other dopamine agonists such as bromocriptine and pergolide | irritation encountered upon transdermal administration [3]: minimal | effectiveness in the treatment of Parkinson's disease [4]: effective in the treatment of Parkinson's disease

N[C@@H](Cc1ccc(O)c(O)c1)C(=O)O [L-Dopa]
therapeutic response fluctuations [5]: severe therapeutic response fluctuations
